{
  "source": "patent US20120029047A1",
  "about": "“USE OF HDAC INHIBITORS FOR THE TREATMENT OF BONE DESTRUCTION” (priority 2007, published 2012)",
  "key": {"MM1S cells [1]": {"system": "MM1S cells", "assay": "Time to clinical endpoint in MM1S model (Study #0942)", "type": "in vivo, SCID-beige mice", "conditions": "for Median Time to Clinical Endpoint: endpoint = clinical score of 3", "protocol": "Female SCID-beige mice were injected with MM1S cells (2×10^6) intravenously (iv) into the tail vein on Day 0. Treatment was initiated on Day 10 when the average tumor burden, as determined by bioluminescence, reached approximately 8.0×10^5-1.0×10^6 photons per second. All treatment groups consisted of 8 animals. […] Tumor burden and body weights were recorded once a week during the active dosing period. In vivo micro-computed tomography (microCT) images were acquired in live animals on day 32 and 33 (Study #1) or Day 34 and 35 (Study #2). In the second study, animals were individually monitored until achievement of clinical endpoint. […] Each animal was monitored daily for progression of signs of disease progression, including mobility and general health. Animals were scored on a clinical scale from 0-4. […] These animals were removed from analysis due to treatment related deaths. […] The median time to endpoint for the vehicle treated animals was 37 days."}, "MM1S tumor bearing mice [2]": {"system": "MM1S tumor bearing mice", "assay": "In vivo microCT analysis of tibial cortical bone density", "design": "species or system SCID-beige mice", "conditions": "Study #0879, 15 mg/kg, tibia", "from_the_text": "Animals were anesthetized with 2% isoflurane mixed with oxygen (2 L/min.) and then placed in a mouse holder (custom made, Peter Ingold, NIBR Basel) specifically designed to align both tibiae and mounted into an in vivo high resolution microCT scanner (VivaCT40, Scanco, Switzerland). To insure correct positioning of the mouse, a scout view of bilateral tibia bones and knee joints was taken and the region of interest (ROI, 2.23 mm in length) was positioned to start at the growth plate extending distally over the area of the trabecular bone (FIG. 3). The scanner was set to a nominal isotropic voxel size of 21 μm, referred to as medium/standard resolution. […]\nFor determination of trabecular and cortical bone features, a 2.23 mm region of interest was placed to start at the growth plate extending distally. […] Trabecular bone density (BV/TV) was measured in a 0.735 mm region of a tibia (9 slices proximal and 25 slices distal from the tibial tuberosity) using SCANCO software (SCANCO, Switzerland) with a threshold of 275 is used to define calcified bone volume (BV). Cortical bone density (BV/TV) was measured in a 1.5 mm region of a tibia (15 slices proximal and 55 slices distal from the tibial tuberosity) using SCANCO software (SCANCO Switzerland) with a threshold of 275. Three-dimensional analysis was performed on the determined regions utilizing the SCANCO operational software. […]"}, "MM1S tumor bearing mice [3]": {"system": "MM1S tumor bearing mice", "assay": "In vivo microCT analysis of tibial trabecular bone density", "design": "species or system SCID-beige mice", "conditions": "for increase in median trabecular bone density: after 4 weeks of treatment", "from_the_text": "Animals were anesthetized with 2% isoflurane mixed with oxygen (2 L/min.) and then placed in a mouse holder (custom made, Peter Ingold, NIBR Basel) specifically designed to align both tibiae and mounted into an in vivo high resolution microCT scanner (VivaCT40, Scanco, Switzerland). To insure correct positioning of the mouse, a scout view of bilateral tibia bones and knee joints was taken and the region of interest (ROI, 2.23 mm in length) was positioned to start at the growth plate extending distally over the area of the trabecular bone (FIG. 3). The scanner was set to a nominal isotropic voxel size of 21 μm, referred to as medium/standard resolution. The X-ray tube was operated at 55 kVp and […] with a focal spot size of 5 μm. Five hundred projection images were acquired per scan with an integration time of 180 ms. Tomographic images were reconstructed on a VMS cluster (HP Alpha, HP, Palo Alto, USA) in 1024×1024 pixel matrices using a conebeam back projection procedure resulting in 315 axial slices.\nFor determination of trabecular and cortical bone features, a 2.23 mm region of interest was placed to start at the growth plate extending distally. 106 axial slices were obtained using a μ-CT VivaCT40Scanner (SCANCO, Switzerland) with 55 kv, […], 180 ms integration time and 21 μm resolution. Trabecular bone density (BV/TV) was measured in a 0.735 mm region of a tibia (9 slices proximal and 25 slices distal from the tibial tuberosity) using SCANCO software (SCANCO, Switzerland) with a threshold of 275 is used to define calcified bone volume (BV). Cortical bone density (BV/TV) was measured in a 1.5 mm region of a tibia (15 slices proximal and 55 slices distal from the tibial tuberosity) using SCANCO software (SCANCO Switzerland) with a threshold of 275. Three-dimensional analysis was performed on the determined regions utilizing the SCANCO operational software. All treatment groups were scanned over the course of two days, with equal numbers of animals from each treatment group scanned each day.\nFIG. 4 describes a […] region of interest was placed to start at the growth plate extending distally. 106 axial slices were obtained using a μ-CT VivaCT40Scanner (SCANCO, Switzerland) with 55 kv, […], 180 ms integration time and 21 μm resolution. Trabecular bone density, bone volume/total volume (BV/TV), was measured in a 0.735 mm region of a tibia (10 slices proximal and 25 slices distal from the tibial tuberosity) using SCANCO software (SCANCO, Switzerland) with a threshold of 275. Cortical bone density, bone volume/total volume (BV/TV), was measured in a 1.5 mm region of a tibia (15 slices proximal and 55 slices distal from the tibial tuberosity) using SCANCO software (SCANCO Switzerland) with a threshold of 275."}, "MM1S cells [4]": {"system": "MM1S cells", "assay": "MM1S disseminated multiple myeloma model, tumor burden by bioluminescence", "type": "in vivo, SCID-beige mice", "protocol": "Female SCID-beige mice were injected with MM1S cells (2×10^6) intravenously (iv) into the tail vein on Day 0. Treatment was initiated on Day 10 when the average tumor burden, as determined by bioluminescence, reached approximately 8.0×10^5-1.0×10^6 photons per second. All treatment groups consisted of 8 animals. […] Tumor burden and body weights were recorded once a week during the active dosing period. In vivo micro-computed tomography (microCT) images were acquired in live animals on day 32 and 33 (Study #1) or Day 34 and 35 (Study #2). In the second study, animals were individually monitored until achievement of clinical endpoint. Treatments were started on Day 10 post-iv tail implantation (2.0 million cells/animal). […] Vehicle control (D5W) was administered ip times per week, for 3 weeks. Initial group size: 8 animals. Final efficacy data and body weight change were calculated 72 hours post-last dose. Treatments were started on Day 10 post-iv tail implantation (2.0 million cells/animal). […] Vehicle control (D5W) was administered ip times per week, for 3 weeks. Initial group size: 8 animals. With respect to FIG. 2, treatments were started on Day 11 post-iv tail implantation (2.0 million cells/animal). NVP-LBH589-CU was administered ip, at 15 mg/kg (A), or 10 and 20 mg/kg (B), 5 times a week (qd×5/wk) for 4 weeks. Vehicle control (D5W) was administered ip 5 times a week (qd×5/wk), for 4 weeks. Bortezomib was administered iv, at 0.2 mg/kg, once per week (qwk) or 1 mg/kg, twice per week in Study #0879 for 4 weeks (biwk) (B). Initial group size: 8 animals. Final efficacy data are shown in the A panel for Study #0879 and B panel for Study #0942. Body weight changes were calculated on 24 hours post-last dose for each study (right panels)."}, "TRACP5B": {"system": "TRACP5B", "assay": "Serum bio-marker TRACP5B ELISA (MouseTRAP Assay)", "type": "in vivo, mouse", "protocol": "A serum marker of bone metabolism, TRACP5B, was assessed for mouse serum changes. The MouseTRAP™ Assay kit is an ELISA assay (Cat#SB-TR103, IDS Fountain Hills, Ariz.). Briefly, polyclonal […] TRACP5B antibodies are incubated in 96 well plates coated with anti-rabbit IgG. This ELISA kit is specific for mouse TRACP5B only. This assay has a reported sensitivity of 0.1 U/L.\nTRACP5B serum levels were evaluated as a measure of osteoclast activity. The level of a TRACP5B was analyzed in FIG. 7 and Table 12."}, "[5]": {"conditions": "Study #0879, 15 mg/kg IP qdx5, 31 days after implantation"}, "[6]": {"conditions": "Study #0942, 10 mg/kg IP qdx5, 35 days after implantation"}, "[7]": {"conditions": "Study #0942, 20 mg/kg IP qdx5, 35 days after implantation"}},
  "data": [
    {"compound": "Cc1[nH]c2ccccc2c1CCNCc1ccc(/C=C/C(=O)NO)cc1", "note": "[LBH589, N-hydroxy-3-[4-[[[2-(2-methyl-1H-indol-3-yl)-ethyl]-amino]methyl]phenyl]-2E-2-propenamide]", "values": [
      {"measurement": "Median Time to Clinical Endpoint", "setting": "MM1S cells [1]; Study #0942, 10 mg/kg", "value": 54, "unit": "days"},
      {"measurement": "animals without symptoms of disease 80 days after implant", "setting": "MM1S cells [1]; Study #0942, 20 mg/kg", "value": "One of the remaining six"},
      {"measurement": "Median Time to Clinical Endpoint", "setting": "MM1S cells [1]; Study #0942, 20 mg/kg", "value": 61, "unit": "days"},
      {"measurement": "Mean Cortical Density (BV/TV)", "setting": "MM1S tumor bearing mice [2]", "value": 98.3, "unit": "%"},
      {"measurement": "increase in mean trabecular bone density", "setting": "MM1S tumor bearing mice [3]; Study #0879, 15 mg/kg, after 3 weeks of treatment", "value": 5.5, "unit": "fold"},
      {"measurement": "Mean Trabecular Density (BV/TV)", "setting": "MM1S tumor bearing mice [3]; Study #0879, 15 mg/kg, tibia", "value": 14.48, "unit": "% BV/TV"},
      {"measurement": "increase in median trabecular bone density", "setting": "MM1S tumor bearing mice [3]; Study #0942, 10 mg/kg", "value": 11.8, "unit": "fold"},
      {"measurement": "Median Trabecular Density (BV/TV)", "setting": "MM1S tumor bearing mice [3]; Study #0942, 10 mg/kg, tibia", "value": 8.23, "unit": "% BV/TV"},
      {"measurement": "increase in median trabecular bone density", "setting": "MM1S tumor bearing mice [3]; Study #0942, 20 mg/kg", "value": 19.1, "unit": "fold"},
      {"measurement": "Median Trabecular Density (BV/TV)", "setting": "MM1S tumor bearing mice [3]; Study #0942, 20 mg/kg, tibia", "value": 12.89, "unit": "% BV/TV"},
      {"measurement": "% Regression", "setting": "MM1S cells [4]; [5]", "value": "None"},
      {"measurement": "% T/C", "setting": "MM1S cells [4]; [5]", "value": 22, "unit": "%"},
      {"measurement": "Delta Mean Tumor Burden (mean ± SEM)", "setting": "MM1S cells [4]; [5]", "value": "292.4E+6 ± 92.6E+6", "unit": "photons/sec"},
      {"measurement": "reduction in tumor burden", "setting": "MM1S cells [4]; Study #0879, 15 mg/kg qdX5, Day 31", "value": "~78", "unit": "%"},
      {"measurement": "% Regression", "setting": "MM1S cells [4]; [6]", "value": "None"},
      {"measurement": "% T/C", "setting": "MM1S cells [4]; [6]", "value": 31, "unit": "%"},
      {"measurement": "Delta Mean Tumor Burden (mean ± SEM)", "setting": "MM1S cells [4]; [6]", "value": "348.5E+6 ± 49.6E+6", "unit": "photons/sec"},
      {"measurement": "reduction in tumor burden", "setting": "MM1S cells [4]; Study #0942, 10 mg/kg qdX5, Day 35", "value": "~79", "unit": "%"},
      {"measurement": "% Regression", "setting": "MM1S cells [4]; [7]", "value": "None"},
      {"measurement": "% T/C", "setting": "MM1S cells [4]; [7]", "value": 9, "unit": "%"},
      {"measurement": "Delta Mean Tumor Burden (mean ± SEM)", "setting": "MM1S cells [4]; [7]", "value": "107.7E+6 ± 42.6E+6", "unit": "photons/sec"},
      {"measurement": "reduction in tumor burden", "setting": "MM1S cells [4]; Study #0942, 20 mg/kg qdX5, Day 35", "value": "~91", "unit": "%"},
      {"measurement": "significance of reduction in tumor burden", "setting": "MM1S cells [4]; both studies (#0879 and #0942)", "value": "statistically significant"},
      {"measurement": "Mean TRACP5B Serum Levels", "setting": "TRACP5B; Study #0879, 15 mg/kg", "value": 7.1},
      {"measurement": "decrease of serum levels of TRACP5B compared to vehicle", "setting": "TRACP5B; Study #0879, LBH589 alone", "value": 41, "unit": "%"}
    ]}
  ]
}
